Measured values from article PMC5606850, “Acidic C-terminal domains autoregulate the RNA chaperone Hfq” (eLife, 2017).

What was measured:
Hfq65 = Hfq65 (Escherichia coli, UniProt P0A6X3); conditions: dsRNA product (D16-FAM·R16) versus ssRNA substrate (D16-FAM)
Description: Annealing kinetics of molecular beacon (50 nM) to either Target or Target-A18 RNA (100 nM) by 0–200 nM Hfq hexamer, in 1X TNK (10 mM Tris·HCl pH 7.5, 50 mM NaCl, 50 mM KCl) buffer at 30°C was measured by stopped-flow fluorescence spectroscopy as described previously ([Soper et al., 2011]; [Panja and Woodson, 2012b]). Annealing progress curves were fit to single or double-exponential rate equations.

Target and Target-U6 RNA = assay: RNA annealing kinetics (molecular beacon with Target and Target-U6), stopped-flow fluorescence; assay type: biochemical; conditions: 16 nt Target and Target-U6 RNA; 30 °C
Description: Figure 4. Shortening the CTD increases auto-inhibition by acidic residues. (A) Observed annealing rate constants for 100 nM target RNA and 50 nM molecular beacon with 0–200 nM Hfq hexamer at 30°C, measured by stopped-flow fluorescence. Black, Hfq102; red, Hfq-sCTD; cyan, Hfq65. (B) Fluorescence anisotropy assay for RNA binding and release. In stopped-flow FRET experiments, the dsRNA is released after pairing with its complementary strand ([Panja et al., 2013]; [Santiago-Frangos et al., 2016]). […] Remaining RNA was displaced from Hfq by excess ssDNA (400 nM DNA2). The averages and standard deviations for three trials are plotted for each Hfq variant. […] (D) Annealing of 5 nM ^32P-ChiX sRNA with 30 nM chiP mRNA without Hfq, or with Hfq65, Hfq102 or Hfq-sCTD, as indicated above each lane. Samples were loaded on a native polyacrylamide gel 60 min or 20 s after the components were mixed. […] (E) Fractions of free ChiX (black), ChiX·chiP dsRNA (light grey), ChiX·Hfq·chiP ternary complex (hatched) and ChiX·Hfq binary complex (dark grey) after 4 min of annealing, as analyzed by EMSA (Figure 4—figure supplement 2). […] Annealing of 100 nM Target RNA to 50 nM beacon RNA by Hfq variants was measured by stopped flow fluorescence at 30°C in 1 × TNK buffer. […] The change in fluorescence emission intensity was normalized to the maximum fluorescence within an experiment. […]

Hfq102 = assay: RNA binding to Hfq102, fluorescence anisotropy; parameters: species or system E. coli; conditions: dsRNA product (D16-FAM·R16) versus ssRNA substrate (D16-FAM)

Sequence of Hfq65 (P0A6X3 1-65): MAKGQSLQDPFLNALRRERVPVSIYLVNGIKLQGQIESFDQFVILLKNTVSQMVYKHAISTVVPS

Substance	Krel = Kd(P)/Kd(S), Hfq65 (Hfq65)	annealing rate of Hfq65 relative to Hfq102 (Target and Target-U6 RNA)	Krel = Kd(P)/Kd(S), Hfq102 (Hfq102)
Hfq65: truncated E. coli Hfq variant lacking the CTD	2.3	about five times faster than full-length Hfq102	
Hfq102: full-length E. coli Hfq			7.5
